The nature of series [1]: Determination of brain to plasma ratio in rat. It is filed as in vivo. Conditions: brain and plasma, female Sprague Dawley rats, read-out: Brain/Plasma Ratio of compound in Rat. The procedure:
Brain to plasma ratios are estimated in female Sprague Dawley rats. The compound is dissolved in water or another appropriate vehicle. For determination of brain to plasma ratio the compound is administrated as a subcutaneous, or an intravenous bolus injection, or an intravenous infusion, or an oral administration. At a predetermined time point after the administration a blood sample is taken with cardiac puncture. The rat is terminated by cutting the heart open, and the brain is immediately retained. The blood samples are collected in heparinized tubes and centrifuged within 30 minutes, in order to separate the plasma from the blood cells. The plasma is transferred to 96-well plates and stored at −20° C. until analysis. The brains are divided in half, and each half is placed in a pre-tarred tube and stored at −20° C. until analysis. Prior to the analysis, the brain samples are thawed and 3 mL/g brain tissue of distilled water is added to the tubes. The brain samples are sonicated in an ice bath until the samples are homogenized. Both brain and plasma samples are precipitated with acetonitrile. After centrifugation, the supernatant is diluted with 0.2% formic acid. […] After reconstitution of the residuals the samples are ready for injection onto the HPLC column.

A further series deals with T1, human mGluR5d (Homo sapiens, UniProt P41594).
T1 construct: expressed in transfected cells; The cells are kept under Hygromycin B and Zeocin selection; The separate IP3 assay names GHEK cells stably expressing human mGluR5d
T1 sequence (P41594 21-942 isoform P41594-3 limits assumed): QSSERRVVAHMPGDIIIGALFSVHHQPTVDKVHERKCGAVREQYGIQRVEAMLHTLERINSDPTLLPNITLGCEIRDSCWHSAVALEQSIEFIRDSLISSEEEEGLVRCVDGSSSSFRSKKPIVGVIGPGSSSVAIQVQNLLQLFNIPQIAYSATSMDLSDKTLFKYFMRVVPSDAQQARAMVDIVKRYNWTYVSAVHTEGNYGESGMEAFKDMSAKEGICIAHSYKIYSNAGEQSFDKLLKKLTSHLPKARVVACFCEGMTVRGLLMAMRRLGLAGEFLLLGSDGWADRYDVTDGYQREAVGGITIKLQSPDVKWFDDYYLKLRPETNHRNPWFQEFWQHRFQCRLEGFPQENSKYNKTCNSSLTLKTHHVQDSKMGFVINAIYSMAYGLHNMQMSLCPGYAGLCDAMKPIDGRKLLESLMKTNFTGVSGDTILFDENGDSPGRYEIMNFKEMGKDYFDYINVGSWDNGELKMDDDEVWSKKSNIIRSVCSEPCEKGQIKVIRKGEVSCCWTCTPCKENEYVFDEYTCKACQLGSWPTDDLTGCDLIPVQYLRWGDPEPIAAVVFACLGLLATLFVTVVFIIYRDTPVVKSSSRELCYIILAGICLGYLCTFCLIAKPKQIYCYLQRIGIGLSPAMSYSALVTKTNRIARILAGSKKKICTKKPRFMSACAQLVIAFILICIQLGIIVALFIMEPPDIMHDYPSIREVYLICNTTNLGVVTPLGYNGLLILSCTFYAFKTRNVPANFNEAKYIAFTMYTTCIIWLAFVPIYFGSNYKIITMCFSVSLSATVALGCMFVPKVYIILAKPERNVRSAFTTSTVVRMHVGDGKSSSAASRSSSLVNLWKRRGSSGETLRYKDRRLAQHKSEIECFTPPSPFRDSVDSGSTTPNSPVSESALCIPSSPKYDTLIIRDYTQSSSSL
The experiment in a line: FLIPR assay, functional assessment of mGluR5 antagonism (intracellular calcium mobilization). Conditions: cells expressing human mGluR5d; IC50 determination; read-out: FLIPR hmGluR5d. It is filed as cell-based. From the text: Functional Assessment of mGluR5 Antagonism in Cell Lines Expressing mGluR5D
The properties of the compounds of the invention can be analyzed using standard assays for pharmacological activity. Examples of glutamate receptor assays are well known in the art as described in for example Aramori et al., Neuron 8:757 (1992), Tanabe et al., Neuron 8:169 (1992), Miller et al., J. Neuroscience 15: 6103 (1995), Balazs, et al., J Neurochemistry 69:151 (1997). The methodology described in these publications is incorporated herein by reference. […]
Cells expressing human mGluR5d as described in WO97/05252 cultured in a mixture of high glucose DMEM with Glutamax (31966-021)(500 mL), 10% dialyzed fetal bovine serum (Hyclone #SH30079.03)(56 mL), 200 μg/mL Hygromycin B (Invitrogen 45-0430, 50 mg/mL)(2.2 mL), 200 μg/mL Zeocin (Invitrogen #R250-01; 100 mg/mL)(1.1 mL) are seeded at a density of 100,000 cells per well on collagen coated clear bottom 96-well plates with black sides and cells were allowed to adhere over night before experiments. […] The fluorescence signal is sampled 50 times at 1-second intervals followed by 3 samples at 5-second intervals immediately after each of the two additions. Responses are measured as the difference between the peak heights of the response to agonist, less the background fluorescence within the sample period. […]
In general terms: A change in cytosolic calcium serves as a functional read-out for many receptors and channels.

Some results are limits rather than exact numbers.

With `Cn1c(-c2ccc(C(N)=O)cc2)nnc1N1CCC[C@@H]1c1cc(-c2cccc(Cl)c2)on1` [Example 6.1, 4-[5-[(2R)-2-[5-(3-Chlorophenyl)1,2-oxazol-3-yl]pyrrolidin-1-yl]-4-methyl-1,2,4-triazol-3-yl]benzamide], in series [1], the Kp was less than 0.01. Also, the IC50 on human mGluR5d worked out at 11 nM.
Taken in the same sequence, the figures for `CNC(=O)c1ccc(-c2nnc(N3CCC[C@@H]3c3cc(-c4cccc(Cl)c4)on3)n2C)cc1` [Example 6.2, 4-[5-[(2R)-2-[5-(3-Chlorophenyl)1,2-oxazol-3-yl]pyrrolidin-1-yl]-4-methyl-1,2,4-triazo1-3-yl]-N-methyl-benzamide] were less than 0.01 and 16 nM.
